Assay results: US8263592B2, “Equilibrative nucleoside transporter ENT1 inhibitors” (Janssen Pharmaceutica NV, priority 2007, dated 2012)
Structures can show the parent of a compound that is named as a salt.

Columns and labels:
human ENT1 transporter = target: T1, human ENT1 transporter (Homo sapiens, UniProt Q99808); assay: hENT1-NBMPR-ERYTH binding assay ([3H]NBMPR, human erythrocytes); conditions: [3H]NBMPR 1 nM, washed human red blood cells 1:200, 30 minutes at room temperature; pIC50=-log(IC50); read-out: pIC50 values for ENT1 transporter inhibition (converted)
T1 construct: with washed red blood cells diluted 1:200 in assay buffer; from tissue; host or cells: human erythrocytes (washed red blood cells from whole blood)
T1 sequence (Q99808 1-456): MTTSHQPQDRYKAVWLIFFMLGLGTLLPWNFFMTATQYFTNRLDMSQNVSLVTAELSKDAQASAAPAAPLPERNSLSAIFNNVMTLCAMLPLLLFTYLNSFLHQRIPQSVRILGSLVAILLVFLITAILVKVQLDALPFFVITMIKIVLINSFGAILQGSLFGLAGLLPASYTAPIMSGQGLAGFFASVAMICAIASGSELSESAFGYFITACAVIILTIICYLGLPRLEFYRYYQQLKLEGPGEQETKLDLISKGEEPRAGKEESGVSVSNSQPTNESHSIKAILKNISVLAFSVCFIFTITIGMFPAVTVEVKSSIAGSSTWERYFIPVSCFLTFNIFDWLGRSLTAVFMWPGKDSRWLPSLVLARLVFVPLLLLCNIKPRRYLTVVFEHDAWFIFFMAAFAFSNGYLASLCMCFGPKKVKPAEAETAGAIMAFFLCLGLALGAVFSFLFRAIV
Method: D. Pharmacological Data D.1hENT1-NBMPR-ERYTH Assay
The affinity of compounds to the human ENT1 transporter was determined in a binding assay using [^3H]NBMPR (19.9 Ci/mmol) from Moravek Biochemicals (Brea, Calif.). Erythrocytes were isolated from freshly isolated EDTA anti-coagulated human blood. 4 ml human whole blood was diluted in 11 ml wash buffer (20 mM MOPS, 130 mM NaCl, pH 7.4) and centrifuged at 800 g for 5 minutes. Erythrocytes were washed two times with wash buffer by centrifugation at 800 g for 5 minutes and then resuspended in wash buffer to the original whole blood volume and stored at −80° C. Binding experiments were performed at apparent binding equilibrium (30 minutes incubation at room temperature) with washed red blood cells diluted 1:200 in assay buffer (20 mM Tris, 140 mM NaCl, […], 2 mM MgCl2, 0.1 mM EDTA, 5 mM Glucose, pH 7.4) and 1 nM of radioligand. Test compounds were pre-incubated with the red blood cells for 30 minutes at room temperature. Non-specific binding was estimated in the presence of 1 μM Draflazine. The incubation was stopped by rapid filtration using Unifilter-96 GF/C filter plates on a 96-well PerkinElmer Filtermate harvester followed by three washes with ice-cold assay buffer. Bound radioactivity was determined by liquid scintillation counting (Topcount, (PerkinElmer)).

| melting point | IC50 (human ENT1 transporter) | SMILES |
| --- | --- | --- |
| 201.61 to 204.2 °C | 22.9 nM | Cc1cccc(C)c1C(=O)NCCN1CCC2(CC1)NC(=O)c1cc(Cl)c(OC(C)C)cc1O2 [Compound 151] |
| 191.24 °C | – | COC(=O)[C@H]1CC[C@H](Oc2cc3c(cc2C)C(=O)CC2(CCN(CCNC(=O)c4c(Cl)cccc4Cl)CC2)O3)CC1 (as salt: oxalate) [Compound 199] |
| – | 1.51 nM | O=C1CC2(CCN(CCNC(=O)c3c(Cl)cccc3Cl)CC2)Oc2c1ccc(NC1CCCC1)c2Cl [Compound 208] |
| 135.95 °C | 2.57 nM | Cc1cc(OC2CCCC2)c2c(c1)C(=O)CC1(CCN(CCNC(=O)c3c(Cl)cccc3Cl)CC1)O2 [Compound 189] |
| – | 11 nM | CN1CCC(Oc2cc3c(cc2Cl)C(=O)NC2(CCN(CCNC(=O)c4c(Cl)cccc4Cl)CC2)O3)CC1 [Compound 26] |
| – | 89.1 nM | CNCCCNc1cc2c(cc1Cl)C(=O)NC1(CCN(CCNC(=O)c3c(Cl)cccc3Cl)CC1)O2 [Compound 43] |
| 245.16 °C | 107 nM | O=C1NC2(CCN(CCNC(=O)c3c(Cl)cccc3Cl)CC2)Oc2c1cc(Cl)cc2N1CCOCC1 [Compound 205] |
| – | 6.46 nM | COCNc1cc2c(cc1Cl)C(=O)NC1(CCN(CCNC(=O)c3c(Cl)cccc3Cl)CC1)O2 [Compound 2] |
| 209.19 °C | 120 nM | O=C1CC2(CCN(CCNC(=O)c3c(Cl)cccc3Cl)CC2)Oc2cc(O)ccc21 [Compound 93] |
| – | 4.27 nM | CC(C)Nc1ccc2c(c1)OC1(CCN(CCNC(=O)c3c(Cl)cccc3Cl)CC1)NC2=O [Compound 3] |
| – | 1.53 nM | CNc1cc2c(cc1Cl)CCC1(CCN(CCNC(=O)c3c(Cl)cccc3Cl)CC1)O2 [Compound 239] |
| 238.02 °C | 3.8 nM | O=C1NC2(CCN(CCNC(=O)c3c(Cl)cccc3Cl)CC2)Oc2c(NC3CCCC3)cc(Cl)cc21 [Compound 223] |
| – | 3.72 nM | Cc1cc2c(cc1NCCCO)OC1(CCN(CCNC(=O)c3c(Cl)cccc3Cl)CC1)CC2=O [Compound 141] |
| 236.63 °C | 9.77 nM | Nc1ccc2c(c1Cl)OC1(CCN(CCNC(=O)c3c(Cl)cccc3Cl)CC1)CC2=O [Compound 130] |
| – | 0.531 nM | COC(=O)[C@H]1CC[C@@H](Oc2cc3c(cc2C)C(=O)CC2(CCN(CCNC(=O)c4c(Cl)cccc4Cl)CC2)O3)CC1 [Compound 222] |
| 245.39 °C | 89.1 nM | Nc1cc2c(cc1Cl)C(=O)NC1(CCN(CCNC(=O)c3c(Cl)cccc3Cl)CC1)O2 [Compound 1] |

The remaining lines, values behind:

| SMILES | melting point | IC50 (human ENT1 transporter) |
| --- | --- | --- |
| COCCCNc1cc2c(cc1C)C(=O)CC1(CCN(CCNC(=O)c3c(Cl)cccc3Cl)CC1)O2 [Compound 133] | – | 1.82 nM |
| Cc1cc2c(cc1NC1CCCC1)OC1(CCN(CCNC(=O)c3c(Cl)cccc3Cl)CC1)CC2=O [Compound 127] | – | 0.776 nM |
| O=C1NC2(CCN(CCNC(=O)c3c(Cl)cccc3Cl)CC2)Oc2cc(OC3CCNCC3)c(Cl)cc21 [Compound 23] | – | 10.2 nM |
| Cc1c(O)ccc2c1OC1(CCN(CCNC(=O)c3c(Cl)cccc3Cl)CC1)CC2=O (as salt: hydrochloric acid salt) [Compound 91] | 187.06 °C | – |
| CC(=O)N1CCC(Oc2cc3c(cc2Cl)CCC2(CCN(CCNC(=O)c4c(Cl)cccc4Cl)CC2)O3)CC1 [Compound 117] | – | 0.589 nM |
| CC(=O)N1CCC(Nc2cc3c(cc2Cl)C(=O)NC2(CCN(CCNC(=O)c4c(Cl)cccc4Cl)CC2)O3)CC1 [Compound 96] | 238.27 °C | 0.776 nM |
| CC(C)(C)OC(=O)N1CCC(Oc2cc3c(cc2Cl)C(=O)NC2(CCN(CCNC(=O)c4c(Cl)cccc4Cl)CC2)O3)CC1 [Compound 22] | 172.85 °C | 0.224 nM |
| COC(=O)[C@H]1CC[C@H](Oc2cc3c(cc2C)C(=O)CC2(CCN(CCNC(=O)c4c(Cl)cccc4Cl)CC2)O3)CC1 [Compound 199] | – | 0.343 nM |
| Nc1cc2c(cc1Cl)CCC1(CCN(CCNC(=O)c3c(Cl)cccc3Cl)CC1)O2 [Compound 10] | 191.14 °C | 18.6 nM |
| CC(=O)N1CCC(Oc2cc3c(cc2Cl)C(=O)NC2(CCN(CCNC(=O)c4c(Cl)cccc4Cl)CC2)O3)CC1 [Compound 27] | 146.87 °C | 0.776 nM |
| CCCCNc1ccc2c(c1)C(=O)CC1(CCN(CCNC(=O)c3c(Cl)cccc3Cl)CC1)O2 [Compound 97] | 153.71 to 156.93 °C | 12 nM |
| O=C1CC2(CCN(CCNC(=O)c3c(Cl)cccc3Cl)CC2)Oc2ccccc21 [Compound 45] | 197.7 to 198.6 °C | 417 nM |
| Cc1c(O)ccc2c1OC1(CCN(CCNC(=O)c3c(Cl)cccc3Cl)CC1)CC2=O [Compound 91] | – | 2.88 nM |
| COCCCNc1cc2c(cc1C)C(=O)CC1(CCN(CCNC(=O)c3c(Cl)cccc3Cl)CC1)O2 (as salt: oxalate) [Compound 133] | 157.06 °C | – |
| CC(=O)N1CCC(Oc2cc3c(cc2Cl)C=CC2(CCN(CCNC(=O)c4c(Cl)cccc4Cl)CC2)O3)CC1 [Compound 108] | – | 0.0447 nM |
